Source: US6923921B2, “Fluorinated polyether compositions” (3M Innovative Properties Company, priority 2002, dated 2005)

Assay: Toxicokinetic study with HFPO alcohols: oral absorption and serum elimination (total fluorine in serum)
Design: species or system Male Sprague-Dawley rats
Conditions: rat, in vivo, 30 mg/kg
Description: The objective of this study was to assess the oral absorption and serum elimination half-life of six hexafluoropropylene oxide (HFPO)-alcohol oligomers (CF3CF2CF2O(CF(CF3)CF2O)xCF(CF3)C(O)N(H)CH2CH2OH), or mixtures thereof, in rats. Male Sprague-Dawley rats (N=4 to 6 rats per dose group) received a single 30 mg/kg dose of the various HFPO alcohol oligomers in propylene glycol by oral gavage at a volume of 5 ml/kg. Necropsies were performed on day one and day four post dose.
Serum samples obtained at necropsy were analyzed for total fluorine based on published methods (1) using an Antek 9000F Fluoride Analysis System. The method was based on oxy-pyrohydrolysis at 1050° C., whereby the C—F bond is broken and the resulting product, hydrogen fluoride (HF), is trapped in a buffer solution and measured with the fluoride ion electrode. The total fluorine levels obtained by this method reflect the total organic fluorine in the serum samples and are reported in Table 2.

## CF3CF2CF2O(CF(CF3)CF2O)xCF(CF3)C(O)N(H)CH2CH2OH [Example 2]
  Amount of Total F ppm (SD) in serum, Day 1 Post-Dose: 0.15 (0.00) ppm
  Amount of Total F ppm (SD) in serum, Day 4 Post-Dose: 0.15 (0.00) ppm

## CF3CF2CF2O(CF(CF3)CF2O)xCF(CF3)C(O)N(H)CH2CH2OH [Example 3]
  Amount of Total F ppm (SD) in serum, Day 1 Post-Dose: 0.15 (0.00) ppm
  Amount of Total F ppm (SD) in serum, Day 4 Post-Dose: 0.15 (0.00) ppm

## CF3CF2CF2O(CF(CF3)CF2O)xCF(CF3)C(O)N(H)CH2CH2OH [Example C1]
  Amount of Total F ppm (SD) in serum, Day 1 Post-Dose: 7.55 (1.34) ppm
  Amount of Total F ppm (SD) in serum, Day 4 Post-Dose: 3.90 (0.00) ppm
  apparent half-life serum fluorine levels: approximately four
